According to patent US20240199654A1, “CTLA-4 SMALL MOLECULE DEGRADATION AGENT AND APPLICATION THEREOF” (SUZHOU GUOKUANG PHARMTECH. CO., LTD., priority 2021, published 2024):

Key:
[1] = system: Non-small cell lung cancer; settings: clinical; cited from earlier work
[2] = system: Colorectal cancer (MSI-H/dMMR); settings: clinical; cited from earlier work
Hepatocellular carcinoma = settings: clinical; cited from earlier work
[3] = system: Mouse colon cancer MC-38 cells; experiment: In vivo activity research of xenograft model (MC-38); parameters: species or system C57BL/6 mice; settings: for TGI(%): 30 mg/kg, oral, once a day, MC-38 subcutaneous in C57BL/6 mice
Protocol: 1. Cell culture: Mouse colon cancer MC-38 cells were adherently cultured in vitro. The culture conditions were RPMI-1640 medium with 10% fetal bovine serum, 100 U/mL penicillin and 100 μg/mL streptomycin, 37° C. 5% CO2 incubator culture. Passaged with routine processing two to three times a week. When the cell saturation was 80%-90% and the number reached the requirement, the cell count was collected, and the cell concentration was adjusted for experimental inoculation. 2. Animals: C57BL/6 mice, female, 7 weeks old, 18-20 grams in weight, 8 mice per group. 3. Tumor inoculation: 0.02 mL (0.2×10^6) MC-38 cells were subcutaneously inoculated into the right back of each mouse. On the 7th day after inoculation, the tumor volumes of the animals were measured, and then the groups were randomized according to tumor volume and administration was started. 4. Experimental indicators: The experimental indicators were used to examine whether the tumor growth is inhibited, delayed or cured. Tumor diameters were measured with vernier calipers two to three times a week. The calculation formula of tumor volume is: V=0.5a×b^2, wherein a and b respectively represent the long and short diameters of tumors. The anti-tumor effect of the compounds was expressed by TGI (%). TGI (%), reflecting tumor growth inhibition rate. Calculation of TGI(%): TGI(%)=[(1-(average tumor volume at the end of administration of a treatment group−average tumor volume at the beginning of administration of the treatment group))/(average tumor volume at the end of treatment of the solvent control group−average tumor volume at the beginning of treatment of the solvent control group)]×100%. 5. Animal experiment grouping, administration program and experimental results: […]

[4] = target: T1, LRBA and CTLA-4 reporting system (Homo sapiens, UniProt P16410+P50851); experiment: LRBA/CTLA-4 protein-protein interaction reporting system, dual luciferase assay in HEK293 cells; format: cell-based; settings: HEK293 cells co-transfected with LRBA and CTLA-4 reporting system, 24 h after dosing; read-out: In vitro activity (IC50: concentration of compounds that inhibit 50% of reporting system activity)
T1 construct: expressed in transfected cells; host or cells: HEK293
T1 sequence (P16410 36-223): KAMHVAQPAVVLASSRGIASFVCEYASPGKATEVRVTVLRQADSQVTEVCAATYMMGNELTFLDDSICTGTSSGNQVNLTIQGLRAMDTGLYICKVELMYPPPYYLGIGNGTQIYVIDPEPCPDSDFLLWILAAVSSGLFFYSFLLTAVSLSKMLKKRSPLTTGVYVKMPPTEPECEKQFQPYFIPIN
T1 sequence (P50851 whole entry): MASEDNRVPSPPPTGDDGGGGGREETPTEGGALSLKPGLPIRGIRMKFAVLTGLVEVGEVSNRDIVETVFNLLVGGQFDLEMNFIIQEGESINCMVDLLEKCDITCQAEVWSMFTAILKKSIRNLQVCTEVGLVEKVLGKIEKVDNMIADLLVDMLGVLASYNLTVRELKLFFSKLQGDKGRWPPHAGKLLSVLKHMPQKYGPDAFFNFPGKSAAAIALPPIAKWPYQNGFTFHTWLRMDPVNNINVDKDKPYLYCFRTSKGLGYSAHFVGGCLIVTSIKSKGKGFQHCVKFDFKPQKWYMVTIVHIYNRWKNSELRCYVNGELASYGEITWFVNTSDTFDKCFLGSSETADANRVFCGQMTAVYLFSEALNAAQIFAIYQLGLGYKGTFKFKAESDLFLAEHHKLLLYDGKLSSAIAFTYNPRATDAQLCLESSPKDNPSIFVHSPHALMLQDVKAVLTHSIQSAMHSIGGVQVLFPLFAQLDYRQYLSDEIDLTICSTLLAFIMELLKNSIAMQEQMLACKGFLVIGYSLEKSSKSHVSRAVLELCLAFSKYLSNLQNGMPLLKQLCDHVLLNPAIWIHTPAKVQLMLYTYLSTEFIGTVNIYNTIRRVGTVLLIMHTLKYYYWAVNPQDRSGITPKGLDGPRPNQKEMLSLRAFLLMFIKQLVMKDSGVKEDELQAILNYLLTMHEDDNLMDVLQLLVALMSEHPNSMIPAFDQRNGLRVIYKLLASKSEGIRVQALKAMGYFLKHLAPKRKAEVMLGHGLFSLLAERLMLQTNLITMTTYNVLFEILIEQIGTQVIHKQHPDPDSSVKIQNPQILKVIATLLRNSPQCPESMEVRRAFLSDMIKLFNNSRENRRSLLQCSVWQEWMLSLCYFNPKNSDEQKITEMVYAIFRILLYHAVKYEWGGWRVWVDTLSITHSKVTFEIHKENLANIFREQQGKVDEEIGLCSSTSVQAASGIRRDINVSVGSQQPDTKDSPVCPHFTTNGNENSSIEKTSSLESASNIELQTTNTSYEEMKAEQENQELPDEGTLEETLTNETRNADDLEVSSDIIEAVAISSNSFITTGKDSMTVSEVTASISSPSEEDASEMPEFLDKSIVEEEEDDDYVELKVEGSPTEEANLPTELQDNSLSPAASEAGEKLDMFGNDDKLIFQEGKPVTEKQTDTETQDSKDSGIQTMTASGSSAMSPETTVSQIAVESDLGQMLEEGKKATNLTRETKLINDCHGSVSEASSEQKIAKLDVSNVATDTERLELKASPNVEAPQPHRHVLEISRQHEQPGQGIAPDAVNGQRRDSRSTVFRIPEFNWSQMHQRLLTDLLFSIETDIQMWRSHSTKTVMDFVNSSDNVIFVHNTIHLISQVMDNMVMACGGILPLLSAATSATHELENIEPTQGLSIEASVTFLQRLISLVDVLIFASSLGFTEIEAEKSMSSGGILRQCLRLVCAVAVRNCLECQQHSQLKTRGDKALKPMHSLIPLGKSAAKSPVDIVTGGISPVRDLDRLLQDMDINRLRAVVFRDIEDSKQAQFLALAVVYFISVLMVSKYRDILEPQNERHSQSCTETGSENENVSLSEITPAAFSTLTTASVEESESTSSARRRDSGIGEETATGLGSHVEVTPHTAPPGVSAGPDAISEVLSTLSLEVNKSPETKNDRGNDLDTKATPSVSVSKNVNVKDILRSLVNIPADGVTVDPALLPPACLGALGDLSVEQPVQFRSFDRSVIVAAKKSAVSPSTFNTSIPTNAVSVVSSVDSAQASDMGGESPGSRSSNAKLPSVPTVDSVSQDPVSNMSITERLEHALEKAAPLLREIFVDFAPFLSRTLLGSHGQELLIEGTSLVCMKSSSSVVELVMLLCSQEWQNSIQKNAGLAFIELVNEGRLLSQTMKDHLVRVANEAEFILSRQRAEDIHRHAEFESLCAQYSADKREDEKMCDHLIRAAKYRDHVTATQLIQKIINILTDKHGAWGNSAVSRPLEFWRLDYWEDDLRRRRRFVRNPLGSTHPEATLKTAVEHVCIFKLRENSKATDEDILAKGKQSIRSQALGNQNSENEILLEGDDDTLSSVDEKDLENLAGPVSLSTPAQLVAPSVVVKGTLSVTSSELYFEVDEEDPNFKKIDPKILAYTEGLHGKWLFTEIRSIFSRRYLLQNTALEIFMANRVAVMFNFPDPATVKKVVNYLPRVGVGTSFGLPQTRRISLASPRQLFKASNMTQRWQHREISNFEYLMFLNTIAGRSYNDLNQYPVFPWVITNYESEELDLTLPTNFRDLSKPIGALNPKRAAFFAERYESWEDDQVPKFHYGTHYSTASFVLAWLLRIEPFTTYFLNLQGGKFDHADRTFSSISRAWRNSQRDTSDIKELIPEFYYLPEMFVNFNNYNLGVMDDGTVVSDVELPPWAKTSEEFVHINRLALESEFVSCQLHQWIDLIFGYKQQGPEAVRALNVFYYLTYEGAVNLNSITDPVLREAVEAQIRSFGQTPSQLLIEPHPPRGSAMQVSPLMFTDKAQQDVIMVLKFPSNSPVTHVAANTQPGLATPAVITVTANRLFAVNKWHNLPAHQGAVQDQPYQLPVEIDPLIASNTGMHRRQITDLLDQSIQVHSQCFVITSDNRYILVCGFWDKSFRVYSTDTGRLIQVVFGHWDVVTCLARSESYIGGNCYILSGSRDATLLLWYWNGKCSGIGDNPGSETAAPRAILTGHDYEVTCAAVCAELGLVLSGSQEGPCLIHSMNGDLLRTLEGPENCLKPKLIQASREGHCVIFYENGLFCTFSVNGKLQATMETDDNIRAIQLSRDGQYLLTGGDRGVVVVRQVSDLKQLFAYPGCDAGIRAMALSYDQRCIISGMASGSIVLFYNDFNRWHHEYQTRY
Protocol: HEK293 cells were spread on 96-well plates, and LRBA and CTLA-4 reporting system were co-transfected into HEK293 cells after 24 h. After 24 h, different compounds with final concentrations of 0.01, 0.033, 0.10, 0.33, 1.00, 3.33, 10.00, 33.33, and 100.00 μM were added. 24 h after dosing, the cell culture medium was removed and the cells were washed with cold PBS. Then the activity of the compounds were detected by the dual luciferase assay kit, and IC50 values were calculated according to the results.
For the compounds with strong activity (IC50<200 nM), the degradation of CTLA-4 protein was further detected by Western Blot. • IC50: Concentration of compounds that inhibit 50% of reporting system activity The size of IC50 is divided into four levels: • ++++, IC50<200 nM; +++, IC50 is 200-1000 nM; ++, IC50 is 1000-2000 nM; +, IC50>2000 nM.

Row | Molecule | IC50 [4] | TGI(%) [3] | other results
1 | Nivolumab [O drug] | – | – | ORR [1]: single O drug group ORR = 14.5%; ORR [2]: single O drug group ORR = 36%; ORR (Hepatocellular carcinoma): single O drug group ORR = 15%
2 | COc1nc2ccccc2cc1-c1ccnc(N2CCC(CN)CC2)n1 [Compound 9, (1-(4-(2-methoxyquinolin-3-yl)pyrimidin-2-yl)piperidin-4-yl)methylamine] | < 200 nM | – | –
3 | NCC1CCN(c2nccc(-c3cc4ccccc4nc3N3CCC(CN)CC3)n2)CC1 [Compound 8, (1-(3-(2-(4-(aminomethyl)piperidin-1-yl)pyrimidin-4-yl)quinolin-2-yl)piperidin-4-yl)methylamine] | 1000 to 2000 nM | – | –

The next lines start with results.

Row | IC50 [4] | Molecule | TGI(%) [3] | other results
4 | < 200 nM | c1ccc2ncc(-c3cc(N4CCNCC4)ncn3)cc2c1 [Compound 44, 3-(6-(piperazin-1-yl)pyrimidin-4-yl)quinoline] | 85% | –
5 | < 200 nM | c1ccc2ncc(-c3ccnc(N4CCNCC4)n3)cc2c1 [Compound 18, 3-(2-(piperazin-1-yl)pyrimidin-4-yl)quinoline] | 90% | anti-tumor effect in tumor transplantation model in vivo ([3]; MC-38 model): excellent anti-tumor effects
